18 compounds from patent US7371737B2, “2-substituted-6-trifluoromethyl purine derivatives with adenosine-A3 antagonistic activity” (Solvay Pharmaceuticals, B.V., priority 2004, dated 2008) can be followed below.

Assay [1] has as its target T1, human adenosine-A2A receptors (Homo sapiens, UniProt P29274).
T1 construct: expressed in transfected cells; host or cells: HEK-293 cells
The assay can be described thus: In vitro affinity for human adenosine-A2A receptors (radioligand [3H]CGS 21680). The conditions noted are these: human recombinant receptors expressed in HEK-293 cells; for Ki: read-out: Adenosine receptor affinity (binding) A2A pKi (converted). Format: binding. How it is done:
Affinity of the compounds for human adenosine-A2A receptors was determined using the receptor binding assay described by D. R. Luthin et al., (Mol. Pharmacol., 47, 307, 1995), using human recombinant receptors expressed in HEK-293 cells, and [^3H]CGS 21680 as radioligand.

Assay [2] concerns the target T2, human Adenosine A3 receptor (Homo sapiens, UniProt P0DMS8).
T2 sequence (P0DMS8 1-318): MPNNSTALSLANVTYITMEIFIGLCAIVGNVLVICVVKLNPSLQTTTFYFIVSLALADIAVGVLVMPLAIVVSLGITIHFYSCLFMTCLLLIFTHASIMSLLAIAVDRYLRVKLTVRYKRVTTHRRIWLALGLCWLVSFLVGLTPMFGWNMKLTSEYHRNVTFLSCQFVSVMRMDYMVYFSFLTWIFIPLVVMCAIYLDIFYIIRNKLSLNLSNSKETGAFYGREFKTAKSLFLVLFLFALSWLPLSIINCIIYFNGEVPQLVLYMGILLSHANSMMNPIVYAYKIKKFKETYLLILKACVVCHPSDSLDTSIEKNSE
The assay can be described thus: In vitro affinity for human adenosine-A3 receptors (radioligand [125I]-AB-MECA). Format: binding. Set-up: expressed in transfected cells; host or cells: HEK 293 cells (membrane preparations). The conditions noted are these: membranes of HEK 293 cells stably expressing human A3, [125I]-AB-MECA, 22° C., 90 minutes; for Ki: read-out: Adenosine receptor affinity (binding) A3 pKi (converted). As for the experimental part:
Affinity of the compounds for human adenosine-A3 receptors was determined using the receptor binding assay described by C. A. Salvatore et al.: “Molecular cloning and characterization of the human A3 adenosine receptor”, Proc. Natl. Acad. Sci. USA, 90, 10365-10369, 1993. Briefly, membrane preparations were obtained from human recombinant (HEK 293) cells in which the human adenosine-A3 receptor was stably expressed. […] Separation of bound radioactivity from free was done by filtration through Packard GF/B glass fiber filters with several washings with ice-cold buffer using a Packard cell harvester. Bound radioactivity was measured with a scintillation counter (Topcount, Packard) using a liquid scintillation cocktail (Microscint 0, Packard). […] Determination of In Vitro Functional Activity on Human Adenosine A3 Receptors Using an Aequorin-based Assay

In assay [3] the target is T3, human adenosine-A1 receptors (Homo sapiens, UniProt P30542).
T3 construct: expressed in transfected cells; host or cells: CHO cells
T3 sequence (P30542 1-326): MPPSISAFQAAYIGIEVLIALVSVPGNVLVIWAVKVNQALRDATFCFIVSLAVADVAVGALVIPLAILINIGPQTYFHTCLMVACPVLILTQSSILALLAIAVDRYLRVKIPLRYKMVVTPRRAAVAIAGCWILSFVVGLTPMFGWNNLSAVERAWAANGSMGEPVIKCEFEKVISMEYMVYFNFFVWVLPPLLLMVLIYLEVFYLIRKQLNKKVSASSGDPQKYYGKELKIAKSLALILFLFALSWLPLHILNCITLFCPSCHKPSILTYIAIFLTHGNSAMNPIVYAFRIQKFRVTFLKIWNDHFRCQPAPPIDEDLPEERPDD
Kind of assay: In vitro affinity for human adenosine-A1 receptors (radioligand [3H]DPCPX). The format is binding. Particulars: human recombinant receptors expressed in CHO cells; for Ki: read-out: Adenosine receptor affinity (binding) A1 pKi (converted). As for the experimental part: Affinity of the compounds for human adenosine-A1 receptors was determined using the receptor binding assay described by A. Townsend-Nicholson and P. R. Schofield (Biol. Chem., 269, 2373, 1994), using human recombinant receptors expressed in CHO cells, and [^3H]DPCPX as radioligand.

Assay [4] addresses T2, human Adenosine A3 receptor. The assay can be described thus: In vitro functional activity on human adenosine A3 receptors using an Aequorin-based assay. Set-up: A. et al. (Acc. Number GenBank: L22607); host or cells: CHO-K1 cells stably expressing mitochondrially targeted aequorin and Galpha16. The format is cell-based. The conditions noted are these: hA3-Aequorin CHO-K1 cells; for EC50: agonist mode, concentrations up to 10^−5 M, read-out: Functional activity A3 agonism pEC50 (converted); for Kb: antagonist mode, N6-benzyl-NECA as the agonist, read-out: Functional activity A3 antagonism pA2 (converted). The text has this: A stable monoclonal hA3-Aequorin cell line was provided by Euroscreen. The coding region encoding the human Adenosine A3 receptor was amplified by polymerase chain reaction (PCR), using human lung cDNA as template. The PCR product was ligated in the expression vector pEFIN3 (Invitrogen), and the complete sequence of the insert was then established. […] A. et al. (Acc. Number GenBank: L22607). The expression plasmid containing the coding sequence of the human Adenosine A3 receptor was transfected in CHO-K1 cells stably expressing mitochondrially targetted Aequorin and Gα16. Resistant clones were selected in the presence of 400 μg/ml G418 and isolated by limiting dilution. […] The hA3-Aequorin cells express mitochondrially targetted apo-Aequorin. Cells have to be loaded with coelenterazine, in order to reconstitute active Aequorin. After binding of agonists to the hA3 receptor, the intracellular calcium concentration increases, which leads to a luminescent response. Binding of calcium to the apo-Aequorin/coelenterazine complex leads to an oxidation reaction of coelenterazine, which results in the production of apo-Aequorin, coelenteramide, CO2 and light (λmax 469 nm). This luminescent response is dependent on the agonist concentration.
Assay-protocol: • Dilute the loaded cells 18× in Dulbecco's medium without PhenolRed (Gibco BRL), pre-heated to 37° C., resulting in a concentration of 2.8*10^5 cells/ml. • Stir for 1 hour at room temperature. • Add 10 μl compound or control per well in white 96-well plates. • Add 90 μl of diluted cells (2.5*10^4 cells/well). • Measure chemoluminescence immediately for 20 seconds. • In antagonist mode 50 μl 10^−6 N6-benzyl-NECA is added as the agonist. • Measure chemoluminescence immediately for 20 seconds using the MicroBetaJet (PerkinElmer).

Some results are limits rather than exact numbers.

T1 sequence (P29274 whole entry): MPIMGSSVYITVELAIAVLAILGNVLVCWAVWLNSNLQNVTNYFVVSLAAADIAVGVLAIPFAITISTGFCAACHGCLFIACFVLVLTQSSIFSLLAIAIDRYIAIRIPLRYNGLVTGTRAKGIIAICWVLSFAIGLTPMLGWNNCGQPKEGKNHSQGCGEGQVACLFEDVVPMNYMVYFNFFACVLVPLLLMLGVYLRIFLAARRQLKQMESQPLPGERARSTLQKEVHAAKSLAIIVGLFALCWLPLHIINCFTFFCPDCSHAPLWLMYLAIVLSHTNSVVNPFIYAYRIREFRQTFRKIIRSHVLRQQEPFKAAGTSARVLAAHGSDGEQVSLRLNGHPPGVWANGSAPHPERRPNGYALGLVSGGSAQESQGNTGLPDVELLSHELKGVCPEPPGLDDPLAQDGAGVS

As for `Cn1c(/C=C\c2ccc(C(F)(F)F)cc2)nc2c(C(F)(F)F)nc(NCCc3ccccc3)nc21` [Compound 25, 8-Z-(4-trifluoromethylstyryl)-6-trifluoromethyl-9-methyl-2-phenethylamino purine], the Ki in assay [1] is > 10 µM; in assay [2], 5.01 µM; in assay [3] it was > 10 µM.
Take `CC(C)(C)OC(=O)OCn1cnc2c(C(F)(F)F)nc(NCCc3ccccc3)nc21` [Compound 28, 6-trifluoromethyl-2-phenetylamino-9-BocOM-purine]: the Ki in assay [1] is > 10 µM; in assay [2], 0.0251 µM; in assay [3], 2.51 µM.
Regarding `Cn1c(-c2ccccc2)nc2c(C(F)(F)F)nc(NCCc3ccccc3)nc21` [Compound 19, 8-phenyl-6-trifluoromethyl-9-methyl-2-phenethylamino purine], the values for the Ki in assay [1], in assay [2] and in assay [3] were 7.94 µM, 2 µM and > 10 µM, respectively.
`Cn1c(-c2cccc(F)c2)nc2c(C(F)(F)F)nc(NCCc3ccccc3)nc21` [Compound 20, 8-(3-fluorophenyl)-6-trifluoromethyl-9-methyl-2-phenethylamino purine]: the results for the Ki in assay [1], in assay [2] and in assay [3] were > 10 µM, 1 µM and 7.94 µM, respectively.
Regarding `Cn1c(I)nc2c(C(F)(F)F)nc(NCCc3ccccc3)nc21` [Compound 12, 8-iodo-6-trifluoromethyl-9-methyl-2-phenethylamino purine], the results for the Ki in assay [1], in assay [2] and in assay [3] were > 10 µM, 2.51 µM and > 10 µM, respectively. The EC50 in assay [4] was > 10 µM. In addition, the Kb in assay [4] is 2 µM.
In the case of `Cn1c(/C=C/c2ccccc2)nc2c(C(F)(F)F)nc(NCCc3ccccc3)nc21` [Compound 21, 8-E-styryl-6-trifluoromethyl-9-methyl-2-phenethylamino purine], the Ki in assay [1] was > 10 µM; in assay [2], 3.98 µM; in assay [3], > 10 µM.
In the case of `Cn1c(-c2ccco2)nc2c(C(F)(F)F)nc(NCCc3ccccc3)nc21` [Compound 13, 8-(furan-2-yl)-6-trifluoromethyl-9-methyl-2-phenethylamino purine], the Ki in assay [1] was 7.94 µM; in assay [2], 1.26 µM; in assay [3], > 10 µM. In addition, in assay [4], the EC50 is > 10 µM. The Kb in assay [4] is 0.158 µM.
In the case of `Cn1c(/C=C/c2ccc(C(F)(F)F)cc2)nc2c(C(F)(F)F)nc(NCCc3ccccc3)nc21` [Compound 24, 8-E-(4-trifluoromethylstyryl)-6-trifluoromethyl-9-methyl-2-phenethylamino purine], the Ki in assay [1] was > 10 µM; in assay [2], 3.98 µM; in assay [3], > 10 µM.
For `OC[C@H]1O[C@@H](n2cnc3c(C(F)(F)F)nc(NCCc4ccc(O)cc4)nc32)[C@H](O)[C@@H]1O` [Compound 27, 2-(4-hydroxy-phenethylamino)-6-trifluoromethyl-9-β-D-ribo-furanosyl purine], the Ki is 3.16 µM in assay [1], 0.01 µM in assay [2] and 5.01 µM in assay [3].
Consider `Cn1c(N2CCOCC2)nc2c(C(F)(F)F)nc(NCCc3ccccc3)nc21` [Compound 17, 8-N-morpholinyl-6-trifluoromethyl-9-methyl-2-phenethylamino purine], for which the Ki in assay [1] is > 10 µM; in assay [2], 1.58 µM; in assay [3], > 10 µM.
Turning to `OC[C@H]1O[C@@H](n2cnc3c(C(F)(F)F)nc(N4CCCCC4)nc32)[C@H](O)[C@@H]1O` [Compound 3, 2-piperidinyl-6-trifluoromethyl-9-β-D-ribofuranosyl purine], the “Adenosine receptor affinity (binding) A2A pKi” value in assay [1] was <5.0. Besides, the “Adenosine receptor affinity (binding) A3 pKi” value in assay [2] came out at 5.4. In addition, the “Adenosine receptor affinity (binding) A1 pKi” value in assay [3] is reported as <5.0.
Turning to `CC(C)(C)OC(=O)OCn1cnc2c(C(F)(F)F)nc(NCc3ccccc3)nc21` [Compound 29, 6-trifluoromethyl-2-benzylamino-9-BocOM-purine], the Ki is 20 µM in assay [1], 0.0794 µM in assay [2] and 2.51 µM in assay [3]. Besides, in assay [4], the EC50 was > 10 µM. In assay [4], the Kb was 7.94 µM.
`Cn1cnc2c(C(F)(F)F)nc([N+](=O)[O-])nc21` [Compound 1, 2-nitro-6-trifluoromethyl-9-methyl purine]: the Ki in assay [1] is > 10 µM; in assay [2] it was 3.98 µM; in assay [3], > 10 µM.
Take `Cn1c(C#Cc2ccccc2)nc2c(C(F)(F)F)nc(NCCc3ccccc3)nc21` [Compound 23, 8-phenylacetylene-6-trifluoromethyl-9-methyl-2-phenethylamino purine]: the values for the Ki in assay [1], in assay [2] and in assay [3] were > 10 µM, 0.501 µM and > 10 µM, respectively.
On to `Cn1c(N2CCCC2)nc2c(C(F)(F)F)nc(NCCc3ccccc3)nc21` [Compound 15, 8-N-pyrrolidinyl-6-trifluoromethyl-9-methyl-2-phenethylamino purine], for which the Ki in assay [1] was > 10 µM; in assay [2], 3.16 µM; in assay [3], > 10 µM.
Take `Cn1c(NC2CCCC2)nc2c(C(F)(F)F)nc(NCCc3ccccc3)nc21` [Compound 18, 8-cyclopentylamino-6-trifluoromethyl-9-methyl-2-phenethylamino purine]: the values for the Ki in assay [1], in assay [2] and in assay [3] were 1.26 µM, 0.631 µM and 3.16 µM, respectively.
Take `Cn1c(N2CCCCC2)nc2c(C(F)(F)F)nc(NCCc3ccccc3)nc21` [Compound 16, 8-N-piperidinyl-6-trifluoromethyl-9-methyl-2-phenethyl amino purine]: the figures for the Ki in assay [1], in assay [2] and in assay [3] were 15.8 µM, 3.98 µM and > 10 µM, respectively.
In the case of `OC[C@H]1O[C@@H](n2cnc3c(C(F)(F)F)nc(OCCc4ccccc4)nc32)[C@H](O)[C@@H]1O` [Compound 30, 2-phenethyloxy-6-trifluoromethyl-9-β-D-ribofuranosyl purine], the Ki in assay [1] was 3.16 µM; in assay [2], 0.158 µM; in assay [3], 1.58 µM.
